Test results taken from patent US9006442B2, “Cannabinoid receptor modulators” (Lupin Limited, priority 2011, dated 2015).

Tests used:
hCB2 = hCB2 (Homo sapiens, UniProt P34972); assay: cAMP determination in functional hCB2-CHO stable cells (HTRF); type: cell-based
rats [1] = assay: FCA-induced inflammatory allodynia, paw withdrawal threshold, von Frey filaments; type: in vivo; settings: mechanical allodynia 7 days after FCA injection, dose 10 mg/kg
Method: FCA (Freund's Complete Adjuvant)—Induced Inflammatory Allodynia:
An emulsion of Freund's Complete Adjuvant (FCA), containing heat killed Mycobacterium tuberculosis (4 mg/ml) in incomplete Freund's adjuvant and saline (1:1) at a final concentration of 2 mg/ml, when injected (150 μl) into the plantar region of the paw of rats induces an inflammatory pain. Mechanical allodynia (7 days after injection) was assessed by measuring hind paw withdrawal thresholds with von Frey filaments. The 50% paw withdrawal threshold was determined using up and down method of Dixon and as per the Chaplan method.

rats [2] = assay: Chronic constriction injury (CCI)-induced neuropathic pain (Bennett's model), mechanical allodynia, von Frey filaments; type: in vivo; settings: CCI of sciatic nerve, mechanical allodynia after 10-15 days, dose 10 mg/kg
Method: Chronic Constriction Injury (CCI)—Induced Neuropathic Pain (Bennett's Model):
Chronic constriction injury (CCI) of sciatic nerve in rats induces mechanical allodynia in this Bennet's neuropathic pain model. Rats were anesthetized using ketamine/xylazine (50/5 mg/kg, i.p.) and the left sciatic nerve was exposed at mid thigh level through a small incision. Four loose ligatures of 4-0 chromic cat gut (Ethicon—Johnson & Johnson) at 1 mm space were placed around the sciatic nerve after the bifurcation of common sciatic nerve. After 10-15 days, mechanical allodynia was assessed by measuring hind paw withdrawal thresholds with von Frey filaments. The 50% paw withdrawal threshold was determined using up and down method of Dixon and as per the Chaplan method.

human CB1 = target: T1, human CB1 (Homo sapiens, UniProt P21554); assay: cAMP determination in functional hCB1-HEK stable cells (HTRF); type: cell-based
T1 construct: expressed in transfected cells
T1 sequence (P21554 whole entry): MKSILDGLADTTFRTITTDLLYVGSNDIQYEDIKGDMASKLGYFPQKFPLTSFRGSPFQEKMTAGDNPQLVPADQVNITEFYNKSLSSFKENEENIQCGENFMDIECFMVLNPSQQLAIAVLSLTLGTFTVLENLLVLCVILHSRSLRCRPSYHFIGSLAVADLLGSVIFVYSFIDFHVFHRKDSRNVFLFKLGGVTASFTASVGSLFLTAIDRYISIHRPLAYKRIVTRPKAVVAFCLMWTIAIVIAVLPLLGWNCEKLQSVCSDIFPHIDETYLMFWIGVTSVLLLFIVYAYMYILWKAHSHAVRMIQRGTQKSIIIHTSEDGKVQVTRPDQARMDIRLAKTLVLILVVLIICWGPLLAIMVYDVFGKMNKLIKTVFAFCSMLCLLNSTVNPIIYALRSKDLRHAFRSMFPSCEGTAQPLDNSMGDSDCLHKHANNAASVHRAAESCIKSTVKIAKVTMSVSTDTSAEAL
Method: In-Vitro Assay Method for Determination of cAMP in Functional hCB1—HEK Stable Cells:
U.S.A), 400 μg/ml of G418 and lx penstrep. For assay, 0.6-1.0×10^6 hCB1-HEK cells were seeded in T-25 flask and grown to mid-log phase in complete culture medium as mentioned above for 2-3 days. One day prior to assay, cell monolayer was washed once with PBS (pH.7.4) and then serum starved for overnight in DMEM medium containing 0.2% bovine serum albumin (devoid of antibiotics, FBS and penstrep). […] The test is performed in 96^1/2 area black well plates. For agonist testing, 20 μl cells/well were mixed with 20 μl of compound and 10 μl of forskolin (with final concentration of 10 μM) and incubated for 40 min at 25° C. incubator. The plates were then processed for cAMP determination using cAMP Femto-2 HTRF kit (Cisbio, Germany) as per the kit manual.

Chain of hCB2 (P34972 whole entry): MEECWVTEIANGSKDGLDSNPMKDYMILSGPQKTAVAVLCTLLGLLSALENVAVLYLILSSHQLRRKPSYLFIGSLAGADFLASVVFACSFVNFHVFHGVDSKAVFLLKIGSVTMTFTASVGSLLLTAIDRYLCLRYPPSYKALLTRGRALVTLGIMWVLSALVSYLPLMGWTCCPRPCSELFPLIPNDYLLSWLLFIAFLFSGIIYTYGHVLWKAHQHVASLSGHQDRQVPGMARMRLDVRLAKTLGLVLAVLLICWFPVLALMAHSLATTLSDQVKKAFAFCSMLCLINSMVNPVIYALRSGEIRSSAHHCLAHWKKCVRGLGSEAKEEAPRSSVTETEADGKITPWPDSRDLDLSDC

SMILES	EC50 (hCB2)	% Improvement (MEAN ± S.E.M.) in Paw withdrawal Threshold, 1 h (rats [1])	% Improvement (MEAN ± S.E.M.) in Paw withdrawal Threshold, 2 h (rats [1])	% Improvement (MEAN ± S.E.M.) in Paw withdrawal Threshold, 1 h (rats [2])	% Improvement (MEAN ± S.E.M.) in Paw withdrawal Threshold, 2 h (rats [2])	EC50 (human CB1)
Cc1cccc2c(Nc3cccc(Cl)c3)ncc(C(=O)N3CCCCC3)c12 [Example-22, (1-((3-Chlorophenyl)amino)-5-methylisoquinolin-4-yl)(piperidin-1-yl)methanone]	< 10 nM	17.7 ± 7.1%	30.7 ± 8.8 %	61.8 ± 10.1 %	70.2 ± 9.5 %	
Cc1cccc2c(Nc3cccc(Cl)c3)ncc(C(=O)N3CC4CC(C3)O4)c12 [Example-39, 6-Oxa-3-azabicyclo[3.1.1]heptan-3-yl(1-((3-chlorophenyl)amino)-5-methylisoquinolin-4-yl)methanone]	< 10 nM	2.10 ± 1.87%	10.22 ± 4.68%	11.6 ± 12.8%	0.7 ± 1.1%	
O=C(c1ccc(Nc2cccc(F)c2)c2ccccc12)N1CCOCC1 [Example-183, (4-((3-Fluorophenyl)amino)naphthalen-1-yl)(morpholino)methanone]	10 to 1000 nM					> 100 nM
Cc1cccc2c(Nc3cccc(C(F)(F)F)c3)ncc(C(=O)N3CC4CC(C3)O4)c12 [Example-40, 6-Oxa-3-azabicyclo[3.1.1]heptan-3-yl(5-methyl-1-((3-(trifluoromethyl)phenyl)amino)isoquinolin-4-yl)methanone]	< 10 nM	12.8 ± 4.6%	13.8 ± 4.5%	21.6 ± 10.6%	11.2 ± 2.9%	
